Test results from patent US20140335532A1, “HUMAN SKIN SAMPLE METHODS AND MODELS FOR VALIDATING HYPOTHESES FOR MECHANISMS DRIVING SKIN PIGMENTATION” (The Procter & Gamble Company, priority 2011, published 2014).

Tests used:
[1] = system: 9 epidermal tone genes; experiment: Endogenously driven ex-vivo human skin tissue, transcription of epidermal tone genes vs untreated control; type: cell-based; conditions: for # Genes (out of 9) with p ≦ 0.1: endogenously driven tissue sample, 37° C. and 70% humidity, epidermal genes regulated vs untreated control, 2-10 experiments each
Description: Referring to FIGS. 11 to 15, examples are shown for the regulation of the 9 epidermal tone genes against an untreated control in an endogenously driven ex-vivo tissue system at 37° C. and 70% humidity for niacinamide, hexamidine, N-Acetyl glucosamine, kojic acid, tranexamic acid, and undecylenoyl phenylalanine (2-10 experiments each). […] For instance, out of the 9 epidermal genes, at least one compound (Hexamidine) regulated 9 genes (with a statistical significance of p<0.1 or better) while two compounds regulated 5 or fewer genes (with a p<0.1 or better). Table 1 below summarizes the number of epidermal genes regulated by certain materials in an endogenously driven tissue sample with a statistical significance of p≦0.1.
Culturing involved setting up culture plates: putting 2.5 ml of media or treatment into each well of a 6-well tissue plate, adding one Millicell culture insert to each well, and putting 100 μl of 1×DMEM on the center of each insert membrane. Squares were selected randomly placed into each of the inserts (one piece of skin per insert), on top of the media on the membrane. The plates were stored at either 33° C. (though an additional non-limiting example would be 37° C. depending on the experiment endpoint). As a control, baseline tissue measurements were collected from excess waste (cryogenics were used for snap freezing). Baseline biopsy collection involved two 4 mm punches for MTT; One 4 mm punch was snap frozen in OCT for fresh histology; One 4 mm punch was fixed in 10% formalin and sent out for paraffin embedding. PCR baseline was also be taken with six 4 mm punches snap frozen in liquid nitrogen.
Culture and treatment of the model comprised replicates of n=5 (though replicates of additional quantities may be used such as n=6). Media Dosing of skin involved solubilizing used in appropriate solvents (including PBS, Media, alcohol, and DMSO; in using DMSO, the final concentration in the plate was restricted to 0.01%). Appropriate dilutions were made for treatment: 15 ml of media were required per plate per day for treatment, with 2.5 ml of media required per well under the cell culture insert. Media was pre-warmed and changed every day during the experiment.
Skin was topically dosed. To do so, formulation for a compound of interest was obtained. Variation was minimized by having a vehicle that was as close to test formula as possible (making sure glycerin concentration was the same, determining if there was a vitamin package in the formula, determining if there was niacimamide; all of these were the same between the vehicle control formula and the test formula) (in ideal embodiments, the only difference is the unknown test compound). The skin was treated using a positive displacement pipette with 20 ul of formulation. A sterile cotton swab was used after application to spread and rub in the formula. Media was changed every day. The media was aspirated and replaced with fresh warmed media at a level of 2.5 ml per well.
For cryopreparation and extraction the following equipment was obtained and prepared: 2 ml round bottom tubes were prepared with 1 ml of TRIZOL as was a 5 mm stainless steel bead for each sample; a dry ice bucket was obtained and liquid nitrogen was placed in the bucket. Biopsy punches were maintained on dry ice, and samples remained frozen. Cryobags and covaris cryoprep were used in freeze fracturing of samples. To freeze fracture the samples, biopsies were placed in a cryo bag (2 per sample) and dipped in liquid nitrogen, then placed in cryoprep (setting 4). The sample bag was taken out and dipped back into nitrogen. A flattened disk was removed and placed into corresponding 2 ml tubes with TRIZOL. The disk was kept frozen in the TRIZOL. The tube was closed and snap frozen, and the whole tube was placed in liquid nitrogen. After repeating the process with all the samples, samples were placed into boxes and stored at −80 until the next step. […]

[2] = system: 9 epidermal tone genes; experiment: Stem Cell Factor/Endothelin 1 driven ex-vivo human skin tissue, transcription of epidermal tone genes vs untreated control; type: cell-based; conditions: Stem Cell Factor/Endothelin 1 driven tissue sample; 37° C. and 70% humidity; out of 9 epidermal genes; 2-10 experiments each
Description: Referring to FIGS. 19 to 23, examples (of 2-10 experiments each) are shown for the regulation of the 9 epidermal tone genes against an untreated control in ex-vivo tissue driven by the combination of Stem Cell Factor and Endothelin at 37° C. and 70% humidity for niacinamide, hexamidine, N-Acetyl glucosamine, kojic acid, tranexamic acid, and undecylenoyl phenylalanine. […] For instance, out of the 9 epidermal genes, at least one compound (undecylenoyl phenylalanine) regulated 5 genes (with a statistical significance of p<0.1 or better) while two compounds regulated 2 or fewer genes (with a p<0.1 or better). Table 2 below summarizes the number of epidermal genes regulated by certain materials in a Stem Cell Factor/Endothelin 1 driven tissue sample with a statistical significance of p≦0.1.
In example embodiments, tone is driven by application of stem cell factor and/or endothelin (with skin preparation, culturing, and mRNA processing being completed as previously described). In an example embodiment, skin samples are placed within 6-well plates, with 2.5 ml of media per well. A concentration of eighty nanograms per milliliter of stem cell factor as well as eighty nanograms per milliliter of endothelin was applied to tissue in the wells, with the media being refreshed daily. The culture was maintained for seven days. Inhibitors of tone-related genes were applied; hexamidine and undecylenoyl phenylalanine were applied topically and daily in vehicles at 0.1% and 0.25%, respectively.

[3] = system: tone genes; experiment: Human Ex-vivo Pre-Clinical Model, fold regulation of tone genes by clinical formulations; type: cell-based; conditions: FIGS. 25a and 25b
Description: FIGS. 25a and 25b show two respective tables showing ex-vivo model fold regulation changes indicating significant down-regulation by clinical formulations in the Human Ex-vivo Pre-Clinical Model.
(§1) The ex-vivo screening method has provided identification of agents consistent with in-vitro studies and which have proven positive clinically. One such example is hexyldecanol. […] For example, total melanin assays were performed using a rat melanoma line known to produce melanin. […] Therefore, promising tone agents such as hexyldecanol identified from the in-vitro model and the ex-vivo model have been tested in clinical settings.

[4] = system: rat melanoma line known to produce melanin; experiment: Total melanin assay in melanoma cell line; type: cell-based; conditions: rat melanoma cell cultures
Description: as §1

[5] = system: facial skin pigmentation (spots, melanin evenness); experiment: 9-week clinical study, randomized, double-blind, vehicle-controlled, split-face; type: in vivo, human; conditions: 9-week study
Source text: For example, hexyldecanol was compared to vehicle controls and positive controls (5% Niacinamide+1% undecylenoyl phenylalanine) through a 9-week period. Specifically the trial included a 9-week clinical study with a randomized, double-blind, round robin, vehicle-controlled, split-face design, including one week normalization period whereby 330 subjects received test product.

[6] = system: tone genes of interest; experiment: Ex-vivo tissue culture exposed to compounds known to stimulate the pigmentation pathway, tone gene regulation; type: cell-based, human; conditions: p≦0.1, minimum of 2-10 experiments each, FIG. 16

Compound	# Genes (out of 9) with p ≦ 0.1 [1]	# of Genes with p ≦ 0.1 [2]	further results
N=C(N)c1ccc(OCCCCCCOc2ccc(C(=N)N)cc2)cc1 [Hexamidine, hexamidine]	9	4	–
CCCCCCCCC(CO)CCCCCC (centres unmarked) [Hexyldecanol, hexyldecanol]	–	–	Ex-vivo model gene regulation [3]: down-regulation; Total melanin produced as compared to controls [4]: decreased; Overall clinical outcome vs vehicle ([5]; 330 subjects, significant if p<0.10 (1-sided) vs. vehicle): statistically better than vehicle controls; Melanin evenness ([5]; versus the vehicle control): significantly different from controls; Spot area fraction (total area of spots per face) ([5]; versus vehicle control group): significantly different from controls
O=c1cc(CO)occ1O [Kojic Acid, kojic acid]	5	2	–
CC(=O)N[C@H]1C(O)O[C@H](CO)[C@@H](O)[C@@H]1O (some centres unmarked) [NAG, N-Acetyl glucosamine]	6	1	–
NC(=O)c1cccnc1 [Niacinamide, niacinamide]	7	3	Down-regulation of tone genes by donor Fitzpatrick type ([1]; 5% niacinamide, Fitzpatrick V donor vs two Fitzpatrick III donors, FIG. 1): more challenging to down-regulate
C=CCCCCCCCCC(=O)N[C@@H](Cc1ccccc1)C(=O)O [Undecylenoyl phenylalanine, undecylenoyl phenylalanine]	3	5	–
Stem Cell Factor: compound known to stimulate the pigmentation pathway; paracrine agent	–	–	Regulation of tone genes of interest [6]: up regulate one or more tone genes of interest
tranexamic acid	7	3	–
α-MSH	–	–	Regulation of tone genes of interest [6]: up regulate one or more tone genes of interest
